The source of these data is US7608627B2, “6-azaindole compound” (Takeda Pharmaceutical Company Limited, priority 2005, dated 2009).

Each structure is given as a SMILES string. Structures can show the parent of a compound that is named as a salt.

The target in this experiment is T1, IKKβ (Homo sapiens, UniProt O14920).
T1 construct: made in house; host or cells: Sf-21 insect cells, recombinant baculovirus BAC-IKKB (pFASTBAC1)
T1 sequence (O14920 1-756): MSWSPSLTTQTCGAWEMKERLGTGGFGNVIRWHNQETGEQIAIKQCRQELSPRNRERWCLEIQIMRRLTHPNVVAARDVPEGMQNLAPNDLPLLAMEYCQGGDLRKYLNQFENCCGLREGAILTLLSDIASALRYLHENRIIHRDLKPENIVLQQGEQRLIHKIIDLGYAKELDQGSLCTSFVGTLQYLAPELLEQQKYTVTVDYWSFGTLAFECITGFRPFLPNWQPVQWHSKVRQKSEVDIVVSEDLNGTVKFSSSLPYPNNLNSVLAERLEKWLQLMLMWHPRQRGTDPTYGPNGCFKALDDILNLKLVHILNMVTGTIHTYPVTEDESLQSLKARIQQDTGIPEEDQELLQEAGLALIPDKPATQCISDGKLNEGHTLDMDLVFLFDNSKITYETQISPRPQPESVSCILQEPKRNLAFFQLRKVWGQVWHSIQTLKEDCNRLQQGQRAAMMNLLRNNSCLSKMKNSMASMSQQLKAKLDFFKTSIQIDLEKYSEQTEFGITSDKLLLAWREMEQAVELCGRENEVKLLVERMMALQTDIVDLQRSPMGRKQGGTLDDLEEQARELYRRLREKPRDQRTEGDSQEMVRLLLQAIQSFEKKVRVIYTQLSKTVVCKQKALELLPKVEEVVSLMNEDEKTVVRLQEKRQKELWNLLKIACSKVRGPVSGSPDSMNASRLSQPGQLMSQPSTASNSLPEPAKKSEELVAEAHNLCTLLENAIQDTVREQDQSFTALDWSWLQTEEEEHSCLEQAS
Description: Determination of IKKβ inhibitory activity (32P uptake into IκBα substrate). The class given is biochemical. Particulars: active IKKβ 10 ng, IκBα substrate protein, [γ-32P]ATP, 30° C. for 60 min; 50% inhibition of 32P uptake by the acid insoluble fraction. As to the method:
To a reaction solution (37.5 μl, 25 mM HEPES (pH 7.5), 10 mM magnesium acetate) containing active IKKβ (10 ng) obtained in Reference Example 3A and 2.5 μg of IκBα substrate protein solution was added a test compound (2.5 μl) dissolved in DMSO, and the mixture was incubated at 30° C. for 5 min. To the obtained mixture was added 10 μl of ATP solution (2.5 μM ATP, 0.01 μCi [γ-^32P]ATP) and the mixture was allowed to react at 30° C. for 60 min. Then 20% TCA solution (50 μl) was added thereto to stop the reaction. The reaction solution was left standing at 4° C. for 20 min. and acid insoluble fraction was transferred to a GF/C filter (PACKARD JAPAN KK) using a cell harvester (PACKARD JAPAN KK) and washed with 250 mM phosphoric acid solution. The plate after washing was dried at 45° C. for 60 min., 40 μl of MicroSinti 0 (PACKARD JAPAN KK) was added and the radioactivity was determined using TopCount (PACKARD JAPAN KK). The concentration (IC50) of the test compound necessary for 50% inhibition of the amount of ^32P uptake by the acid insoluble fraction was calculated using PRISM 3.0 (GraphPad Software, Inc.).

For orientation: IC50 means the concentration that inhibits the measured activity by half. A low value points to higher potency. In turn, `c1ccc(C(=NOC2CCNC2)c2cc3ccncc3[nH]2)cc1` (stereo not shown) [Example 91, Phenyl (1H-pyrrolo[2,3-c]pyridin-2-yl)methanone O-pyrrolidin-3-yloxime dihydrochloride] displayed an IC50 of 1700 nM.
